Laboratory results from US9463174B2, “Pharmaceutical composition for the treatment of type-1 diabetes” (priority 2008, dated 2016).
Entries after “also recorded” stand apart in the source; their conditions may differ.

Tests used:
[1] = system: established diabetic MLDS-mice; assay: Reversal of well established diabetes in MLDS-mice by daily GABA injection; assay type: in vivo
Experimental: To investigate if GABA can reverse diabetes, daily GABA injection was started in well established diabetes in MLDS-mice (blood glucose>30 mM).
The techniques used for the in vivo and in vitro studies in this embodiment of the disclosure are also described. CD1 mice (Charles River Laboratories, St Constant, Canada), NOD mice and transgenic TCR NOD mice (Jackson Laboratory, USA) were housed under a controlled temperature and a 12-h light/12-h dark cycle in the St. Michael's Hospital Animal facility with free access to food (normal rodent chow) and water, except where noted. All procedures were conducted according to protocols and guidelines approved by the Canadian Council of Animal Care and the St. Michael's Hospital Animal Care committee. Mice were treated with GABA by daily intraperitoneal (i.p.) injection of 20·g GABA per mouse to reach ˜200 μM circulation concentration and PBS as control. The daily treatment is continuously conducted during 60-day experimental period. One wk after the GABA and PBS treatment, diabetes was induced in both groups by i.p.-injection of low-dose streptozotocin (STZ, Sigma Chemical Co., St. Louis, Mo. 40 mg/kg body weight) for 5 consecutive days. The development of hyperglycemia was monitored by measuring blood glucose from the tail vein every third day following STZ injections using an Ascensia ELITE® XL glucose meter. For some studies, overtly diabetic mice induced by STZ and without GABA treatment were divided into two groups: one group started receiving daily i.p. injection of 20·g GABA whereas other group received only PBS. The treatment was continued for 75 days. The handling of the NOD mice were similar to those CD1 mice except the STZ injection. The NOD mice have a susceptibility to spontaneous development of autoimmune T1D. The TCR transgenic 8.3-NOD mice have a markedly accelerated disease (J. Vergdaguer et al, 1997 J Exp Med. 186(10):1663-76).
Groups of mice were subject to a glucose tolerance test (IPGTT) before treatment (day 0), one, three, and five weeks after administration and the day prior termination. For IPGTT, mice were fasted overnight for 15 h, and were given 1.5 g glucose/kg body weight via i.p.-injection. Blood was drawn from the tail vein and blood glucose was measured at 0, 10, 20, 30, 60, 90, and 120 min after glucose administration.
Mice were housed in metabolic cages prior to initiation of GABA and PBS treatment and before termination of experiments. Food intake, water consumption and urine output were measured. To determine the fat distribution, three intra-abdominal fat pads retroperitoneal, mesenteric and epididymal were dissected and weighed. Subcutaneous fat was also analyzed.
Blood samples (200 μL) were collected from the saphenous vein at time as indicated and at the termination of experiments via cardiac puncture (1 mL) for measurement of insulin, glucagon, and cytokine profiles. Serum was collected by centrifugation and stored at −80° C. until use. Insulin and glucagon concentration in serum samples were determined using insulin ELISA kit (Crystal Chem., Chicago, Ill., USA) and glucagon RIA kit (Linco Research, St. Louis, Miss., USA). Circulating GLP-1 levels were determined using GLP-1 RIA kit (Linco Research, St. Louis, Miss., USA). Cytokine concentration in the serum samples was determined using kit Multiplex Bead-based Cytokine assay (BioRed, Canada).
Pancreas harvesting and tissue processing were performed as described previously (Wang Q, Brubaker P L 2002 Diabetologia. 45(9):1263-73). Briefly, after cardiac puncture under anesthesia, a midlaparotomy was performed and the pancreas was immediately dissected from surrounding tissues, cleared of fat and lymph nodes, blotted, weighed, and placed in a formaldehyde-acetic acid solution. The procedure from completion of cardiac puncture to placement of tissue in fixative was completed within 5 min. After overnight fixation, the pancreas was washed in cold running water, cut into 10-12 segments. […]

[2] = system: INS-1 cells; assay: Cell proliferation assay by 3H-thymidine incorporation; assay type: cell-based
Experimental: INS-1 cells were grown to 80-85% confluence in 12-well plates, serum-starved for 24 h and then treated with GABA at various concentrations in the presence of 3 mmol/l glucose. Some cells were also pre-incubated with GABA receptor antagonist for 20 h prior before the treatment. DNA synthesis was measured by incubating cells with 37 kBq/ml 3H-methylthymidine (specific activity: 3000 GBq/mmol; Amersham Pharmacia Biotech) for 4 h. Cells were then washed twice in ice-cold PBS and incubated for 30 min in 1 ml of 5% trichloroacetic acid on ice to precipitate the DNA. The liquid layer was removed by aspiration and 250 μl of 0.1 mol/l sodium hydroxide was added to the cells for 30 min at room temperature. During this time the container was gently shaken. The solubilised material was then transferred to 5 ml of scintillant, and radioactive counts were determined by liquid scintillation counting.

[3] = system: INS-1 cells; assay: Insulin secretion from INS-1 cells; assay type: cell-based; conditions: dose dependent
[4] = day 74 after GABA daily administration

NCCCC(=O)O [GABA, gamma-aminobutyric acid]
glucose tolerance (IPGTT) at 7th days after GABA injections ([1]; 7th day): significantly improved; also recorded: improved glucose tolerance | blood glucose / diabetic hyperglycemia, course ([1]; daily GABA started at blood glucose>30 mM): started to decline only a few days after GABA injection; also recorded: reverses MLDS-induced diabetic hyperglycemia; also recorded: completely reversed diabetic hyperglycemia | blood glucose levels at day 74 [1, 4]: closed to the normal range | glucose tolerance at day 74 [1, 4]: almost identical to control normal mice; also recorded: improved glucose tolerance | metabolic conditions (metabolic studies) ([1]; established diabetic MLDS mice): normalized metabolic conditions; also recorded: normalized metabolic status | glucose tolerance at all time points examined ([1]; including two weeks and eight weeks after GABA injections): steadily improves glucose tolerance | islet morphology ([1]; islet histochemistry): almost normal islet morphology | lymphocytes in the islets ([1]; islet histochemistry): few lymphocytes were seen | alpha-cell mass ([1]; vs non-treated MLDS-mice): reduced alpha-cell mass | beta-cell mass ([1]; vs non-treated MLDS-mice): significant enlarged beta-cell mass; also recorded: significantly restored beta-cell mass | circulating glucagon ([1]; vs non-treated MLDS-mice): reduced circulating glucagon levels | circulating insulin ([1]; vs non-treated MLDS-mice): elevated circulating insulin | ratio of insulin to glucagon ([1]; vs non-treated MLDS-mice): largely increased ratio of insulin to glucagon; also recorded: significantly increased | 3H-thymidine incorporation into INS-1 cells ([2]; GABA 100 mM, time-dependent manner): increased the ^3H-thymidine incorporation | INS-1 cell proliferation (3H-thymidine incorporation) ([2]; various concentrations, 3 mmol/l glucose): dose-dependently increased INS-1 cell proliferation | insulin secretion from INS-1 cells [3]: stimulated insulin secretion; also recorded: dose-dependently increases insulin secretion
